Laboratory results as given in US20070112068A1, “Nitrile compound and its use in pest control” (priority 2003, published 2007).

Experiments:
Type in all cases: in vivo
[1] = tested on: Blattalla germanica; assay: Experimental Example 3: treated filter paper with sucrose bait, German cockroach; conditions: 500 ppm, 0.7 ml on filter paper; two male imagoes; after 6 days
Method: A filter paper having a diameter of 5.5 cm was spread on the bottom of a polyethylene cup having a diameter of 5.5 cm and 0.7 ml of the experimental pesticidal solution was added dropwise onto the filter paper. As a bait 30 mg of sucrose was uniformly placed on the filter paper. Into the polyethylene cup, two male Blattalla germanica imagoes were released and the cup was sealed with a lid. After 6 days, the number of surviving Blattalla germanica was examined and the death rate of the pest was calculated.

[2] = tested on: Haemaphysalis longicornis; assay: Experimental Example 7: treated polypropylene film pouch, Haemaphysalis longicornis; conditions: 0.22 ml of 0.25% (w/v) methanol solution on film; 10 young mites; after 48 hours
Method: A 0.25% (w/v) solution of the present compound (31) in methanol was prepared. Onto one side of a polypropylene film having 5.7 cm (height)×16.5 cm (width), 0.22 ml of the solution was added dropwise uniformly (except for 5 mm width from the edges of the film) and then air-dried. Thereafter, the film was folded in half widthwise in a way that the side containing the present compound became the inner face of the folded film. Then, the two longer sides (5 mm width each) of the folded film were heat-sealed to obtain a pouch. 10 young mites of Haemaphysalis longicornis were put into the polypropylene film pouch. The opening part of the polypropylene film pouch was closed with a clip. After 48 hours, the number of surviving Haemaphysalis longicornis was examined and the death rate of the pest was calculated.

[3] = tested on: Culex pipiens pallens; assay: Experimental Example 10: treated filter paper in Peet-Grady chamber, Culex pipiens pallens; conditions: 5 ml of 1% (w/v) acetone solution on filter paper; 1.8 m Peet-Grady chamber; female imagoes; 1 hour exposure, 24 hours later
Method: A 1% (w/v) solution of the present compound (31) in acetone was prepared. Onto a filter paper with 10 cm×25 cm, 5 ml of the solution was added dropwise uniformly and then air-dried. This filter paper was suspended from the center of the ceiling center of a Peet-Grady chamber with 1.8 m (width)×1.8 m (depth)×1.8 m (height) and therein about 50 female imagoes of Culex pipiens pallens were released. After 1 hour, all test pests were collected, put into a plastic cup together with absorbent cotton impregnated with 5% sugar water, and then left at 25° C. After 24 hours, the number of surviving Culex pipiens pallens was examined and the death rate was calculated.

[4] = tested on: Blattella germanica; assay: Experimental Example 14: topical application, Blattella germanica; conditions: 1 μl of 1% (w/v) acetone solution onto sternum of thorax of female imagoes; after 7 days
Method: 1% (w/v) solutions of the present compounds (4), (20), (22), (23), (24), (29), (30), (31), (35), (36), (37), (38), (46), (53), (54), (56), (57), (59), (61), (66), (67), (68), (69), (70), (71), (79), (81), (83), (84), (89), and (90) in acetone were prepared. Onto the sternum of the thorax of female imagoes of Blattella germanica, 1 μl of the acetone solution was added dropwise. The imagoes were transferred to a plastic cup having a diameter of about 9 cm and a height of about 4.5 cm and left together with feed and water at 25° C. After 7 days, the number of surviving Blattella germanica was examined and the death rate of the pest was calculated. 10 imagoes of Blattella germanica were put in a cup and three replicate experiments were performed.

[5] = tested on: Blattella germanica; assay: Experimental Example 15: treated filter paper in paper box, Blattella germanica; conditions: 0.1 ml of 2.5% (w/v) acetone solution on filter paper in paper box; after 7 days
Method: 2.5% (w/v) solutions of the present compounds (23), (24) and (31) in acetone were prepared. 0.1 ml of the solution was added dropwise onto a filter paper with 2 cm×2 cm and then air-dried. This filter paper was attached to the center of the inside bottom of a paper box having 10 cm (width)×2 cm (height)×7 cm (depth) with a two-sided tape. One hole of 5 mm in width and 2 cm in height was made through one side of this box. This box was placed in a plastic vat with 25 cm×20 cm×8 cm in height and therein 10 females and 10 males of Blattella germanica were released. The inside wall of the plastic vat used in this experiment was coated with talc for preventing the escape of cockroaches. The plastic vat contained feed and water and left at 25° C. After 7 days, Blattella germanica was observed and the death rate of the pest was calculated. This experiment was repeated two times.

[6] = tested on: Blattella germanica; assay: Experimental Example 21: poison bait, Blattella germanica; conditions: poison bait: 3 ml of 0.5% by weight acetone solution per 3 g animal feed; 1 g bait; after 7 days
Method: 3 ml of a 0.5% by weight solution of the present compound (31) in acetone is added dropwise to 3 g of animal powdery feed, mixed thoroughly, and then air-dried to obtain a poison bait. 1 g of this poison bait is placed on an aluminum dish and the dish is placed in a plastic cup (860 mL) containing 20 imagoes (10 males and 10 females) of Blattella germanica. The pest is given water and kept at 25° C. After 7 days, the number of surviving Blattella germanica is examined and the activity of the poison bait is obtained.

[7] = tested on: Formica fusca japonica; assay: Experimental Example 23: treated filter paper on cup lid, Formica fusca japonica; conditions: 0.1 ml of 5% (w/v) acetone solution on filter paper on lid; after 7 days
Method: A 5% (w/v) solution of the present compound (31) in acetone is prepared. 0.1 ml of the solution is added dropwise to a filter paper with 2 cm×2 cm and then air-dried. 10 imagoes of Formica fusca japonica are released in a plastic cup having a diameter of 12.5 cm and a height of 8 cm. After feed and water are placed therein, the cup is closed with a lid. The aforementioned pesticide-treated filter paper is attached to the inner surface of the lid. In addition, the inside wall of the cup is coated with talc for preventing the climbing of ants. This cup is kept at 25° C.

[8] = tested on: Halyomorpha mista; assay: Experimental Example 24: direct oil spray in CSMA chamber, Halyomorpha mista; conditions: 0.4 ml of 5% (w/v) oil sprayed directly; after 72 hours
Method: 1.5 g of the present compound (31) is dissolved in 30 mL of a mixed solvent of 90 parts by weight of Isopar M (isoparaffin; the registered trade name of Exxon Chemical) and 10 parts by weight of dichloromethane to prepare a 5% (w/v) oil. A plastic cup (860 mL) containing 10 imagoes of Halyomorpha mista is covered with a nylon net (mesh width: 2 mm) and then placed on the bottom of a CSMA chamber (width: 46 cm, depth: 46 cm, height: 70 cm). 0.4 ml of the oil is directly sprayed on the test Halyomorpha mista from the upper side of the CSMA chamber. After 10 seconds from spraying, the cup containing Halyomorpha mista is removed, and feed and water are placed in the cup.

N#CC(C#N)(CCC(F)(F)F)CC(F)(F)C(F)(F)C(F)(F)C(F)F [(31)]
death rate of the pest [1]: 100% | death rate of the pest [2]: 100% | death rate of the pest [3]: 86% | death rate of the pest [4]: 100% | death rate of the pest [5]: 100% | activity of the poison bait [6]: sufficient pesticidal effect | pesticidal effect [7]: pesticidal effect on Formica fusca japonica is confirmed | pesticidal effect [8]: pesticidal effect on Halyomorpha mista is confirmed
